Data reported in patent publication US20240374763A1, “DIAGNOSIS AND MONITORING USING EXTRADOMAIN-B FIBRONECTIN TARGETED PROBES” (Case Western Reserve University, priority 2020, published 2024).
Where a name gives a salt, the structure may show the parent alone. No end group written: not given here.

What was measured:
DLD1-DR tumors = experiment: MK2206-HCl therapy of DLD1-DR tumor-bearing mice, tumor volume; type: in vivo; details: for average tumor volume: treated group
Method: For therapeutic monitoring, 3-4×10^6 DLD1-DR cells suspended in Matrigel-PBS mixture (1:1) were subcutaneously injected in the left flanks of 10 nude mice (100 μL per mouse, mice labeled TM1-TM10). Tumor volumes were monitored and measured once a week using a Vernier caliper. When the average tumor volumes reached 100 mm^3, mice were randomized into 2 groups of 5: vehicle (mice #TM1, TM3, TM4, TM5, & TM10) and treated (mice #TM2, TM6, TM7, TM8, & TM9). Once a week, mice in the treated group received MK2206-HCl (100 mg/kg) and those in the vehicle group were injected with equivalent volume of DMSO, as described previously. Smith, J. A., L. J. Stallons, and R. G. Schnellmann, Am J Physiol Renal Physiol, 2014. 307(4): p. F435-44. After 3 weeks of treatment, tumor volumes increased over 1000 mm^3 and the experiment was terminated. The animals were then euthanized, and the tumors were harvested for post-mortem histology and IHC. Tumor volumes were calculated as [(Width)2×Length]/2.

EDB-FN [1] = experiment: MK2206-HCl treatment, qRT-PCR of EDB-FN; type: cell-based; details: MDA-MB-468-DR cells, 4 μM MK2206-HCl for 2 days, vs DMSO-treated controls
Method: (§1) The invasive TGF-β-treated and drug-resistant MCF7 and MDA-MB-468 populations were treated with MK2206-HCl, a pan-AKT inhibitor, purchased from SelleckChem (Boston, MA). For this treatment, 8×10^5 cells were plated on 6-well plates. After 24 h of attachment, the cells were treated with MK2206-HCl for 2 days (2 μM dose for MCF7 cells and 4 μM dose for MDA-MB-468 cells). Cells treated with equivalent volume of DMSO were used as controls. After treatment, the cells were counted and an equal number of cells was plated on Matrigel and in transwell inserts for the invasion and 3D growth assays, as described in the relevant sections. The treated and non-treated cells were similarly counted and harvested for protein and RNA extraction for western blotting and qRT-PCR, respectively.
Total RNA was extracted from cells and tissues using the RNeasy Plus Mini Kit (Qiagen, Germantown, MD), according to manufacturer's instructions. RNA concentration was determined and 1 μg of RNA was used to set up reverse transcription using the miScript II RT Kit (Qiagen) and qPCR was performed using the SyBr Green PCR Master Mix (Applied Biosystems, CA). Gene expression was analyzed by the 2-ΔΔCt method with 18S or R-actin expression as the control.

[2] = test system: phospho-AKT (T308 and S473); experiment: MK2206-HCl treatment, western blot of phospho-AKT; type: cell-based; details: invasive cell derivatives; 2 μM (MCF7) or 4 μM (MDA-MB-468) for 2 days
Method: as §1, with “respectively. Total cellular protein was extracted as previously described. […] et al., (2019) Bioconjug Chem 30, 907-919. Protein concentration was determined by Lowry assay and equal concentration of protein extracts (40 μg) was loaded on SDS-PAGE gels, transferred onto nitrocellulose membrane and immunoblotted with primary antibodies overnight. Anti-EDB-FN antibody (G4 clone) was used at 1:1000 dilution. […]” for “respectively.”

[3] = test system: TGF-β-treated and drug-resistant MCF7 and MDA-MB-468 cells; experiment: MK2206-HCl treatment, transwell invasion assay; type: cell-based; details: TGFβ-treated and drug-resistant cell derivatives; 2 μM (MCF7) or 4 μM (MDA-MB-468) for 2 days
Method: as §1
For the invasion assay, breast cancer cells were starved in serum-depleted media overnight. The next day, 1-2×10^5 cells were plated in transwell inserts (VWR, Radnor, PA) coated with 0.3 mg/mL Corning™ Matrigel™ Membrane Matrix (Corning, NY). After 1-2 days, the inserts were swabbed with Q-tips to remove the plated cells. The invading cells on the bottom of the inserts were fixed with 4% paraformaldehyde followed by staining with 0.1% crystal violet for 20 min. Excess stain was washed under tap water and images of the purple migrated cells were taken using the Moticam T2 camera with 10× objective lens.

EDB-FN [4] = biological target: T1, EDB-FN (Homo sapiens, UniProt P02751); experiment: Peptide binding study of OSCC spheroids with ZD2-Cy5.5; type: cell-based; details: ZD2-Cy5.5 125 nM, 15 minutes, ratio to Hoechst
T1 sequence (P02751 32-2267 isoform P02751-13 limits assumed): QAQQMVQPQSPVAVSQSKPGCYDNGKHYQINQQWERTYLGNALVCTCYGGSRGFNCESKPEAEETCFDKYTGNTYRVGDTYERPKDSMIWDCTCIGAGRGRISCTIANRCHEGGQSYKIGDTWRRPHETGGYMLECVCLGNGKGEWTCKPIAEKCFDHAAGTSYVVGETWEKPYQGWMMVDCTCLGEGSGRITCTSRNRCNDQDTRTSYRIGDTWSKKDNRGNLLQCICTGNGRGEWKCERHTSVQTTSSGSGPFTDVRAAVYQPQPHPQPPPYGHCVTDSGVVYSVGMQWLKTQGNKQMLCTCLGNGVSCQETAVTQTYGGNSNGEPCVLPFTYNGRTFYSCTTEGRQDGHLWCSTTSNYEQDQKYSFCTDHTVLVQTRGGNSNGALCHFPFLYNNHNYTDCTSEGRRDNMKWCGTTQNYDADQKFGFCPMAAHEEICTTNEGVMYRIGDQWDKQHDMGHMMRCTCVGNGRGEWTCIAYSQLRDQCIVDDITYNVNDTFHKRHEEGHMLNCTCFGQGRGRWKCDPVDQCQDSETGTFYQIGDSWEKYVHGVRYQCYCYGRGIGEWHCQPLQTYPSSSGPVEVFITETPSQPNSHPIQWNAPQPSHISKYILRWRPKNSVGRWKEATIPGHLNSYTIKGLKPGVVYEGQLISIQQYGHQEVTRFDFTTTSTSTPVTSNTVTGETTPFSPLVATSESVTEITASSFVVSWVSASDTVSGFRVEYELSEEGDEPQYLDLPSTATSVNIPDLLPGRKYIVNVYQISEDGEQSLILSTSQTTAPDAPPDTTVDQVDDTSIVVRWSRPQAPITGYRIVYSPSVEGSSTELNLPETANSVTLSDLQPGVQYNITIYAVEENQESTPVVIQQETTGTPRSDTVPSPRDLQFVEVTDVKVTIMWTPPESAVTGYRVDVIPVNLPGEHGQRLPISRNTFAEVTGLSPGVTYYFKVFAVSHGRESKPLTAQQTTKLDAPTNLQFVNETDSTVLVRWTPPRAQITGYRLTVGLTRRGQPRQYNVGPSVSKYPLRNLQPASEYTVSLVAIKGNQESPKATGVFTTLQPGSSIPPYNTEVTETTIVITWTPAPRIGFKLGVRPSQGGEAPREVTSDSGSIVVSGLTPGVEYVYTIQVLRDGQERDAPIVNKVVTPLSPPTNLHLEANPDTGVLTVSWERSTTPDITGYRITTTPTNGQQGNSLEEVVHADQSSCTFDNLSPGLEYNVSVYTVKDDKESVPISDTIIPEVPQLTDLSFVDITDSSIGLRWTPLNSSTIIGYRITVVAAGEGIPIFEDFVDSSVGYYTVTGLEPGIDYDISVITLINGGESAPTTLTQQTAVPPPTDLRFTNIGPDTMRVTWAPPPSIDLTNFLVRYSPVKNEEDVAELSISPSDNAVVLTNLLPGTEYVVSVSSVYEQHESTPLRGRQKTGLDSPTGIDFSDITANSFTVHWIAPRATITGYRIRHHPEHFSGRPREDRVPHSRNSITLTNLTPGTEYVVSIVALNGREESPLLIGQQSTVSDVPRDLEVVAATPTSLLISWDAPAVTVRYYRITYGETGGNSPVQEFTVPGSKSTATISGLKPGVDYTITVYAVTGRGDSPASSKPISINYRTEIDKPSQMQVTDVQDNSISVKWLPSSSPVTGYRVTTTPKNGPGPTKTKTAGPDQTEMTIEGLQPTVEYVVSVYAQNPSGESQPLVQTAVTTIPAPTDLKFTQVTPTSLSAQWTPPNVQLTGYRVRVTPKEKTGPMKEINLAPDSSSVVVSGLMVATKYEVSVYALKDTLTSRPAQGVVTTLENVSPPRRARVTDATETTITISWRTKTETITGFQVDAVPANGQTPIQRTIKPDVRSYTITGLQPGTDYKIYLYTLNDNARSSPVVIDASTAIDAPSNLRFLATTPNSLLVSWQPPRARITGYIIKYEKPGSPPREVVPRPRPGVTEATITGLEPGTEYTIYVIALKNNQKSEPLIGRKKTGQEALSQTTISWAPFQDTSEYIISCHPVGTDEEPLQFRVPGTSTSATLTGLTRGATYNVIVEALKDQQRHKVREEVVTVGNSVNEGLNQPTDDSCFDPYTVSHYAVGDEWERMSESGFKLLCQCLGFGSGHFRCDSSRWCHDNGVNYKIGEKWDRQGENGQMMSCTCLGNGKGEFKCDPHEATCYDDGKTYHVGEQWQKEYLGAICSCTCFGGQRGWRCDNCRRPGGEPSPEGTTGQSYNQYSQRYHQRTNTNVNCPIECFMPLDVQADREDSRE
Method: Coverslip plates (4-well, Ibidi GmbH, Martinsried, Germany) were coated with Cultrex Basement Membrane Matrix (350 μL, Trevigen, Gaithersburg, MA, USA). For spheroid formation, 2×10^5 OSCC cells were seeded into prepared wells, incubated for 2 days, and photographed with the Moticam T2 camera (Motic, Hong Kong, China). For peptide binding, 1×10^5 cells were seeded into prepared wells and incubated for 2 days. Spheroids were stained with ZD2-Cy5.5 (125 nM), synthesized as previously described, and Hoechst (1:2000 dilution) (Invitrogen, Carlsbad, CA, USA) dyes for 15 minutes, washed 3× with DPBS (Thermo Fisher Scientific), and imaged with confocal laser scanning microscopy using the Olympus FV1000 system (Olympus Life Science, Tokyo, Japan).
Confocal fluorescence images were analyzed using FIJI. For quantification, images were thresholded to generate ROIs of both stains. For spheroid size, the average size of Hoechst ROIs was calculated. For staining intensity, the average signal intensities of ZD2-Cy5.5 and Hoechst ROIs were calculated, along with the ratio between the average intensities.

EDB-FN [5] = experiment: ZD2-Cy5.5 staining of frozen tissue sections, BC-1 blocking experiment; details: PaCa xenograft tissue sections, excess BC1 antibody
Method: For assessment of binding specificity of ZD2 peptide, flash frozen samples of tumor and normal tissues were collected from the euthanized tumor bearing mice and embedded in optimal cutting temperature media. The embedded samples were then immersed in liquid nitrogen for 5 minutes and transferred to −80° C. for storage before cryosectioning. Tissue sections were blocked for 1 hr in PBS containing 0.05% Tween-20 and 10% normal goat serum (Gibco, Gaithersburg, MD) and then stained with BC-1 primary monoclonal antibody (1:400) or ZD2-Cy5.5 (500 nM) at 4° C. overnight or room temperature incubation for 2.5 hr, respectively, and then washed with PBS-T buffer. Secondary Alexa Fluor 594 anti-rabbit was incubated with the BC-1 treated sections for 1 hour at room temperature (1:1000). For the blocking experiment, the tissue sections were first incubated with an excess of BC1 antibody at 4° C. overnight, then washed three times with PBS-T. The sections were then incubated with ZD2-Cy5.5 at room temperature incubation for 2.5 hr. The stained sections were washed with PBS-T buffer and images were acquired on an Olympus FV1000 (Waltham, MA) confocal microscope using pre-programmed emission and excitation filters for Cy5.5 (excitation: 635 nm; emission: 693 nm) and DAPI (excitation: 405 nm; emission: 461 nm), using a 10× objective lens.

EDB-FN [6] = biological target: T1, EDB-FN; experiment: ZD2-Cy5.5 staining of human tissue; design: from tissue; host or cells: deparaffinized sections of human pancreatic cancer, PanIN and normal pancreas; details: 500 nM
Method: Tissue sections from PaCa patients (Case Comprehensive Cancer Center, Cleveland, OH) were deparaffinized with xylene, ethanol, and washed with water. Blocking was performed with 10% goat serum (Invitrogen, Carlsbad, CA) in PBS with 0.1% Tween 20 (PBS-T) for 30 minutes and incubated with 500 nM ZD2-Cy5.5 in PBS-T for 1 hour at 37° C. Following three washes with PBS-T, the sections were mounted using Fluoroshield mounting medium (Abcam, Cambridge, UK). Images were acquired on a FV1000 (Olympus, Waltham, MA) confocal microscope using pre-programmed emission and excitation filters for Cy5.5 (excitation: 635 nm; emission: 693 nm) and DAPI (excitation: 405 nm; emission: 461 nm), using a 10× objective lens. All tissue samples were imaged at the same laser power and sensor gain. Images were generated from single-channel grayscale images using FIJI software.

| Molecule | tumor response to therapy (DLD1-DR tumors; DLD1-DR tumors, MK2206-HCl 100 mg/kg once a week for 3 weeks) | average tumor volume (DLD1-DR tumors; week 1 (baseline), MK2206-HCl 100 mg/kg once a week) | average tumor volume (DLD1-DR tumors; week 4, after 3 weeks of MK2206-HCl 100 mg/kg once a week) | decrease in EDB-FN mRNA (EDB-FN [1]) | inhibition of phospho-AKT (T308 and S473) [2] | invasive potential [3] | staining intensity of SCC4 relative to HSC3 spheroids (EDB-FN [4]) | ZD2-Cy5.5 binding in the presence of the anti-EDB-FN antibody (EDB-FN [5]) | ZD2-Cy5.5 binding (EDB-FN [6]; human PaCa tissue) | ZD2-Cy5.5 binding (EDB-FN [6]; normal pancreatic tissue) | ZD2-Cy5.5 binding (EDB-FN [6]; precancerous PanIN tissue) |
| --- | --- | --- | --- | --- | --- | --- | --- | --- | --- | --- | --- |
| NC1(c2ccc(-c3nc4ccn5c(=O)[nH]nc5c4cc3-c3ccccc3)cc2)CCC1 [MK2206-HCl] | did not respond to therapy | 110.5±11.97 mm^3 | 1249.7±199.3 mm^3 | 10-15% | robust inhibition | reduced the invasive potential |  |  |  |  |  |
| ZD2-Cy5.5: EDB-FN-specific fluorescent peptide probe, ZD2 peptide labeled with Cy5.5 (TVRTSAD; also: labeled with Cy5.5, site and linker not given here) |  |  |  |  |  |  | approximately 2 fold | blocked | high | low | moderate |
